Earlier results as cited in patent US5780426A, “Fivemer cyclic peptide inhibitors of diseases involving αv β3” (IXSYS, Incorporated, priority 1995, dated 1998).
Bridge positions count the residues as written; N and C are the ends. Ends that are not written are not given here.

Experiments:
integrin αv β3 = integrin αv β3 (Homo sapiens, UniProt P05106+P06756); conditions: Koivunen et al. 1995
angiogenesis = conditions: Nicosia and Bonanno 1991
αv β3 receptor = conditions: chicken embryo tumor model; Brooks et al., Cell 1994
osteoclasts = conditions: Horton et al. 1991

Sequence of integrin αv β3 (P06756 31-889 limits assumed): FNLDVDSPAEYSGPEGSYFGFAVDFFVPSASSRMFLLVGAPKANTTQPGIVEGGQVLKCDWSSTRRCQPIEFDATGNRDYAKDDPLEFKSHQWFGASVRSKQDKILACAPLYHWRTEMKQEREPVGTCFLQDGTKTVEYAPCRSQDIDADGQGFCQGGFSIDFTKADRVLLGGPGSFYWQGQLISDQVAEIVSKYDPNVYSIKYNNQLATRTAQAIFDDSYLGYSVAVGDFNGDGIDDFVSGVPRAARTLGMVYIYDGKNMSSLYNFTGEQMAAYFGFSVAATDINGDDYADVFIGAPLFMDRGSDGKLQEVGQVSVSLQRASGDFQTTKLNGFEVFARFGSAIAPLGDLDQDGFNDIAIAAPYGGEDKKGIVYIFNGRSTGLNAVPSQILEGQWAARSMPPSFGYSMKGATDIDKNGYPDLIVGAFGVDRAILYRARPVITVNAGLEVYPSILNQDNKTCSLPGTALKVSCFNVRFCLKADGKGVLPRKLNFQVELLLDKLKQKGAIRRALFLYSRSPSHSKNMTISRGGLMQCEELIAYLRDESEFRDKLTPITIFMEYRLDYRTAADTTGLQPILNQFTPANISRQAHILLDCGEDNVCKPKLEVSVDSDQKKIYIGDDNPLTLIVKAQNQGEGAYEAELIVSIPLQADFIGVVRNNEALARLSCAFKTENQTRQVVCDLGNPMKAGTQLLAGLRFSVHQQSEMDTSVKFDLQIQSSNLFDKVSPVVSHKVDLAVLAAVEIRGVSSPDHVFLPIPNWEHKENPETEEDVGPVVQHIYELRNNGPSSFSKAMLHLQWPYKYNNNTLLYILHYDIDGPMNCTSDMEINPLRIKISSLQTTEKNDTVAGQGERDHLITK
Sequence of integrin αv β3 (P06756 891-1048 partner limits assumed): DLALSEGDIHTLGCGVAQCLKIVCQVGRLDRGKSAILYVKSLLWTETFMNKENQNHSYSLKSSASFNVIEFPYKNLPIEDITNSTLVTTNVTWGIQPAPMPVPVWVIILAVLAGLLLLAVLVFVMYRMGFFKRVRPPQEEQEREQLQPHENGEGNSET
Sequence of integrin αv β3 (P05106 27-788): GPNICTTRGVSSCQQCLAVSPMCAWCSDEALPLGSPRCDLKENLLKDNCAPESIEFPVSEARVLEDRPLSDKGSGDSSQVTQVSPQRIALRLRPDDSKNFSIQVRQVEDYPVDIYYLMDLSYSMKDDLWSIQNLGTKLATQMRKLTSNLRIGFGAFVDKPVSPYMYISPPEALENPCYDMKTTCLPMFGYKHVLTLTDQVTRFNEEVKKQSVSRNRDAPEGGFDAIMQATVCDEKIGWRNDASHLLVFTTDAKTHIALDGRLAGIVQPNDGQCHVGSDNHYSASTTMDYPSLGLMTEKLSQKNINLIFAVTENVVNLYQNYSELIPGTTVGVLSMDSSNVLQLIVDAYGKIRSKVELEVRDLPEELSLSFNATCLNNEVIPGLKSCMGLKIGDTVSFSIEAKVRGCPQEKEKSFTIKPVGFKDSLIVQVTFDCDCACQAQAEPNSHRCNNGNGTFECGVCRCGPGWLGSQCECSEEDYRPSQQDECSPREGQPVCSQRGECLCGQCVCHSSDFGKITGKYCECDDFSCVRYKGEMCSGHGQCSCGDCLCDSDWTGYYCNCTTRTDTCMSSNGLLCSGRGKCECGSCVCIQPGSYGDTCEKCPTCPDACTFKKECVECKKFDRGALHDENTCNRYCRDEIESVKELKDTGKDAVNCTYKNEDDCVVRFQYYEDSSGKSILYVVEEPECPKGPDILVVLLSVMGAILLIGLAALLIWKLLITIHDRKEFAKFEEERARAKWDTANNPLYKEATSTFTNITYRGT

ACPSRLDSPCG (disulfide 2-10 (inferred)) [RLD peptide synthesized from a random cyclic phage library (Koivunen et al.)]
selectivity for the integrin αv β3 (integrin αv β3): only partially selective | activity relative to an RGD peptide (fold lower) (integrin αv β3; binding and cell adhesion assays): 100-1000 fold

Gly-Arg-Gly-Asp-Ser (GRGDS)
inhibition of angiogenesis in vitro (angiogenesis): inhibits angiogenesis in vitro

CC(C)[C@@H]1NC(=O)[C@@H](Cc2ccccc2)NC(=O)[C@H](CC(=O)O)NC(=O)CNC(=O)[C@H](CCCN=C(N)N)NC1=O [cyclo-RGDfv]
inhibition of angiogenesis / neovascularization (αv β3 receptor): inhibit the neovascularization process

GRGDSP [Arg-Gly-Asp containing peptide]
osteoclast function (osteoclasts): disruption of osteoclast function
